Data: patent US7279161B2, “Factor IX/factor IXa activating antibodies and antibody derivatives” (Baxter Aktiengesellschaft, priority 1999, dated 2007)
Entries after “also recorded” stand apart in the source; their conditions may differ.

Legend:
factor IXa = biological target: T1, factor IXa (Bos taurus, UniProt P00741); assay: Chromogenic FVIII assay (COATEST VIII:C/4) with the kit's FIXa/FX; format: biochemical, bovine; settings: bovine FIXa and FX only; A1/3 24 μM
T1 construct: purchased Chromogenix COATEST VIII:C/4
Experimental: In order to assay the FVIII-like activity of anti-FIXa antibodies secreted by hybridoma cells, the commercially available test-kit COATEST VIII:C/4® (Chromogenix) was employed. The assay was done essentially as described by the manufacturer with the following modifications:
To allow high throughput screening, the assay was downscaled to microtiter plate format. Briefly, 25 μl aliquots of hybridoma supernatants were transferred to microtiter plate (Costar, #3598) wells and warmed to 37° C. Chromogenic substrate (S-2222), synthetic thrombin inhibitor (I-2581), factor (F) IXa and FX were reconstituted in sterile water and FIXa/FX was mixed with phospholipids according to the supplier's protocol. Per reaction, 50 μl of the phospholipid/FIXa/FX solution were combined with 25 μl CaCl2 (25 mM) and 50 μl of the substrate/inhibitor cocktail. To start the reaction, 125 μl of the premix were added to the hybridoma supernatant in the microtiter plates and incubated at 37° C. Absorbency at 405 nm and 490 nm of the samples was read at various times (30 min to 12 h) against a reagent blank (MLW, cell culture medium instead of hybridoma supernatant) in a Labsystems iEMS Reader MF™ microtiter plate reader. FVIII-like activity of the samples was calculated by comparing the absorbency of the samples against the absorbency of a diluted FVIII reference standard (IMMUNO AG #5T4AR00) using GENESIS™ software.
Several anti-FIX/FIXa antibody producing hybridoma clones were subcloned up to four times and the resulting monoclonal hybridoma cell line used to produce monoclonal antibody containing supernatant. IgG isotype antibodies derived from these supernatants were purified over affinity columns and dialyzed against TBS (see above). IgM antibodies were used as unpurified supernatant fractions. […] Absorbance at 405 nm and 490 nm of the samples was read at various times (5 min to 6 h) against a reagent blank (cell culture medium instead of hybridoma supernatant) in a Labsystems iEMS Reader MF™ microtiter plate reader using GENESIS™ software. […]

FVIII inhibitor plasma = assay: aPTT based one stage clotting assay in FVIII inhibitor plasma; format: biochemical; settings: inhibitor plasma 8.1 Bethesda Units per ml
Experimental: […] […] […] After a 4 minute incubation, the reaction was started by the addition of 100 μl CaCl2 (25 mM). To ensure equal conditions, the experiments employing FVIII deficient plasma and FVIII inhibitor plasma were done side by side.
To assay for the procoagulant activity of peptide A1/3 in FVIII inhibitor plasma the following experiment was carried out. We performed a standard aPTT based one stage clotting assay, but instead of FVIII deficient plasma we employed FVIII inhibitor plasma.

T1 sequence (P00741 47-192 limits assumed): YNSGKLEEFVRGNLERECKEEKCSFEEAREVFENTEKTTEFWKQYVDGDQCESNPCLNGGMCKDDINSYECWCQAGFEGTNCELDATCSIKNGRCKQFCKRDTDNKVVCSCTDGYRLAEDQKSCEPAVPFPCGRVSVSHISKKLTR
T1 sequence (P00741 228-462 limits assumed): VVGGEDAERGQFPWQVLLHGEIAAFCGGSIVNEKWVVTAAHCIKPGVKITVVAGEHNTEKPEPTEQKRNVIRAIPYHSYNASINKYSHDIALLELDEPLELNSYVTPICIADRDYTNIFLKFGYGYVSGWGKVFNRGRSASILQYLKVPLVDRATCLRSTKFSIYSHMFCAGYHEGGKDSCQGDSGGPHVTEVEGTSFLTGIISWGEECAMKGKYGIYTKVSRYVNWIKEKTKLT

RRREGGGYYVNWYFDRRR [A1/3]
chromogenic FVIII-like activity (FXa generation) without human FIXa (factor IXa): does not react with bovine FIXa and FX; also recorded: does not give rise to any FXa generation
average clotting time (FVIII inhibitor plasma; 1.25 μM, 2.2 nM FIXa): 91 s
clotting time (FVIII inhibitor plasma; 1.25 μM, 2.2 nM FIXa, duplicate 1): 91.3 s
clotting time (FVIII inhibitor plasma; 1.25 μM, 2.2 nM FIXa, duplicate 2): 91.4 s
average clotting time (FVIII inhibitor plasma; 1.25 μM, w/o FIXa): 104 s
clotting time (FVIII inhibitor plasma; 1.25 μM, w/o FIXa, duplicate 1): 104.5 s
clotting time (FVIII inhibitor plasma; 1.25 μM, w/o FIXa, duplicate 2): 104.3 s
average clotting time (FVIII inhibitor plasma; 2.5 μM, 2.2 nM FIXa): 90 s
clotting time (FVIII inhibitor plasma; 2.5 μM, 2.2 nM FIXa, duplicate 1): 90.2 s
clotting time (FVIII inhibitor plasma; 2.5 μM, 2.2 nM FIXa, duplicate 2): 90.5 s
average clotting time (FVIII inhibitor plasma; 2.5 μM, w/o FIXa): 106 s
clotting time (FVIII inhibitor plasma; 2.5 μM, w/o FIXa, duplicate 1): 106.1 s
clotting time (FVIII inhibitor plasma; 2.5 μM, w/o FIXa, duplicate 2): 105.3 s
average clotting time (FVIII inhibitor plasma; 5 μM, 2.2 nM FIXa): 82 s
clotting time (FVIII inhibitor plasma; 5 μM, 2.2 nM FIXa, duplicate 1): 81 s
clotting time (FVIII inhibitor plasma; 5 μM, 2.2 nM FIXa, duplicate 2): 82 s
average clotting time (FVIII inhibitor plasma; 5 μM, w/o FIXa): 101 s
clotting time (FVIII inhibitor plasma; 5 μM, w/o FIXa, duplicate 1): 101.5 s
clotting time (FVIII inhibitor plasma; 5 μM, w/o FIXa, duplicate 2): 101.1 s
average clotting time (FVIII inhibitor plasma; 7.5 μM, 2.2 nM FIXa): 70 s
clotting time (FVIII inhibitor plasma; 7.5 μM, 2.2 nM FIXa, duplicate 1): 68.8 s
clotting time (FVIII inhibitor plasma; 7.5 μM, 2.2 nM FIXa, duplicate 2): 70.9 s
average clotting time (FVIII inhibitor plasma; 7.5 μM, w/o FIXa): 93 s
clotting time (FVIII inhibitor plasma; 7.5 μM, w/o FIXa, duplicate 1): 93.7 s
clotting time (FVIII inhibitor plasma; 7.5 μM, w/o FIXa, duplicate 2): 92.7 s
average clotting time (FVIII inhibitor plasma; 10 μM, 2.2 nM FIXa): 62 s
clotting time (FVIII inhibitor plasma; 10 μM, 2.2 nM FIXa, duplicate 1): 61.3 s
clotting time (FVIII inhibitor plasma; 10 μM, 2.2 nM FIXa, duplicate 2): 61.8 s
average clotting time (FVIII inhibitor plasma; 10 μM, w/o FIXa): 88 s
clotting time (FVIII inhibitor plasma; 10 μM, w/o FIXa, duplicate 1): 88.4 s
clotting time (FVIII inhibitor plasma; 10 μM, w/o FIXa, duplicate 2): 87.9 s
average clotting time (FVIII inhibitor plasma; 12.5 μM, 2.2 nM FIXa): 61 s
clotting time (FVIII inhibitor plasma; 12.5 μM, 2.2 nM FIXa, duplicate 1): 61 s
clotting time (FVIII inhibitor plasma; 12.5 μM, 2.2 nM FIXa, duplicate 2): 60.2 s
average clotting time (FVIII inhibitor plasma; 12.5 μM, w/o FIXa): 86 s
clotting time (FVIII inhibitor plasma; 12.5 μM, w/o FIXa, duplicate 1): 85.8 s
clotting time (FVIII inhibitor plasma; 12.5 μM, w/o FIXa, duplicate 2): 85.3 s
